In patent US10370373B2, “Antitumor derivatives for differentiation therapy” (THE CLEVELAND CLINIC FOUNDATION, priority 2016, dated 2019):

Experiments:
Type in all cases: cell-based
[1] = tested on: THP1 AML cells; assay: cell number / growth of THP1 AML cells; settings: derivatives at 1 mM vs ED2 at 10 μM
Description: (§1) E) Elevation of differentiation markers CD11b and CD14. […] G) Upregulation of p27 (CDKN1B) (ED3 lysates were unavailable).

[2] = tested on: THP-1 cells; assay: Annexin-PI flow cytometry for apoptosis; settings: 5 days after treatment
Description: (§2) (A) CD11b flow cytometry was performed on THP-1 cells 5 days after the indicated treatments. (B) Annexin-PI flow cytometry of the same cells to determine the percent of cells that were undergoing apoptosis after treatments with the different compounds. Camptothecin is a positive apoptosis inducer.

[3] = tested on: THP1 AML cells; assay: CD11b / CD14 differentiation marker flow cytometry; settings: THP-1 cells, 5 days after treatment
Description: as §1, §2

[4] = cell viability (zolpidem)

| SMILES | growth inhibitory activity against THP-1 cells versus ED2 [1] | activation of apoptosis pathway (Annexin-PI) [2] | differentiation induction via CD11b flow cytometry versus decitabine and ED2 [3] | cell viability [4] |
| --- | --- | --- | --- | --- |
| CCCCSc1ccc2nc(-c3ccc(OCCCN)cc3)cn2c1 [NH2, 3-(4-(6-(butylthio)imidazo[1,2-a]pyridin-2-yl)phenoxy)propan-1-amine] | more potent growth inhibitory activity | do not activate the apoptosis pathway | better differentiation inducers than decitabine (DAC) and ED2 |  |
| O=C(O)CCCC[C@@H]1SC[C@@H]2NC(=O)N[C@@H]21 [biotin] | more potent growth inhibitory activity | do not activate the apoptosis pathway | better differentiation inducers than decitabine (DAC) and ED2 |  |
| Cc1ccc(-c2nc3ccc(C)cn3c2CC(=O)N(C)C)cc1 [zolpidem] |  |  |  | does not affect cell viability |
